From ChEMBL document CHEMBL3751807, “Design of High-Affinity Stapled Peptides To Target the Repressor Activator Protein 1 (RAP1)/Telomeric Repeat-Binding Factor 2 (TRF2) Protein-Protein Interaction in the Shelterin Complex” (J Med Chem, 2016)

Tests used:
[1] = Solubility of compound in phosphate buffer at 15 uM; type: physicochemical
[2] = Solubility of compound in phosphate buffer at 100 uM; type: physicochemical
[3] = target: T1, Telomeric repeat-binding factor 2-interacting protein 1 (Homo sapiens, UniProt Q9NYB0); experiment: Competitive binding to RAP1 (unknown origin) incubated for 1 hr by fluorescence polarization-based binding assay
T1 sequence (Q9NYB0 whole entry): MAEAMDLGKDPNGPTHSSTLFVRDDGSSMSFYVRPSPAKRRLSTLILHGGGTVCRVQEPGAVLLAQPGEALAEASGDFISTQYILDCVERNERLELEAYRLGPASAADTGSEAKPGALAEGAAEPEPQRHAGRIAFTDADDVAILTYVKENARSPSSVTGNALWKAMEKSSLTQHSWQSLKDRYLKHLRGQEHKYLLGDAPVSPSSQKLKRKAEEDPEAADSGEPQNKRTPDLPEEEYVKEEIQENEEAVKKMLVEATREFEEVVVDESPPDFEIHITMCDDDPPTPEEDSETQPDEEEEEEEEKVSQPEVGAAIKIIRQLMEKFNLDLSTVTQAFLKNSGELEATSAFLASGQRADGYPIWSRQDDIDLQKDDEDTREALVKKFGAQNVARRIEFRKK

C#CC[C@@H](NC(=O)[C@H](CCCCN)NC(=O)[C@H](Cc1ccccc1)NC(=O)[C@H](C)NC(=O)[C@H](CCCCN=[N+]=[N-])NC(=O)[C@H](CCCCN)NC(=O)[C@H](CC(C)C)NC(=O)[C@@H](NC(=O)[C@H](CCSC)NC(=O)[C@H](CCSC)NC(=O)CNC(=O)[C@@H](NC(=O)[C@@H](NC(=O)[C@@H](NC(C)=O)[C@@H](C)O)[C@@H](C)O)[C@@H](C)CC)[C@@H](C)O)C(=O)N[C@@H](CC(C)C)C(=O)N[C@@H](CO)C(N)=O
solubility [1]: Insoluble

CC[C@@H](C)[C@H](NC(=O)[C@@H](NC(=O)[C@@H](NC(C)=O)[C@@H](C)O)[C@@H](C)O)C(=O)NCC(=O)N[C@@H](CCSC)C(=O)N[C@@H](CCSC)C(=O)N[C@H](C(=O)N[C@@H](CC(C)C)C(=O)N[C@@H](CCCCN)C(=O)N[C@@H]1CCCCn2cc(nn2)C[C@H](C(=O)N[C@@H](CC(C)C)C(=O)N[C@H](CO)C(N)=O)NC(=O)[C@@H](CCCCN)NC(=O)[C@@H](Cc2ccccc2)NC(=O)[C@H](C)NC1=O)[C@@H](C)O (stereo in doubt)
solubility [2]: soluble

Ac-TTIGMKTLKAAFKT-NH2
IC50 [3]: > 200 µM
